The values that follow come from US9970938B2, “Use of BUBR1 as a biomarker of drug response to furazanobenzimidazoles” (Basilea Pharmaceutica AG, priority 2011, dated 2018).

What all share (type): cell-based, human
One test concerns A549 NSCLC cells. Nature of the test: Immunofluorescent staining of microtubules in cultured cells. Particulars: for microtubule phenotype of mitotic or G2/M arrested cells: 24 hours treatment, anti-alpha-tubulin staining; for microtubule phenotype, agent added for the last 4 hours of 24 hours BAL27862 treatment: combination. The procedure: A549 human non-small cell lung cancer (NSCLC, ATCC reference number CCL-185) cells, HeLa cervical cancer cells (ATCC reference number CCL-2) and SKBR3 breast carcinoma cells (ATCC reference number HTB-30) were seeded at densities of 50% on round microscope coverslips and cultured for 24 hours in RPMI-1640 containing 10% FCS (also referred to as FBS) at 37° C., 5% CO2. Compounds to be tested were dissolved in DMSO. The cell culture medium was replaced with medium containing the diluted compound(s) (paclitaxel, vinblastine, colchicine and nocodazole were purchased from Sigma-Aldrich) or vehicle. After treatment, coverslips were washed and cells were fixed in methanol/acetone (1:1) for 5 minutes at room temperature and subsequently incubated in blocking buffer (0.5% BSA and 0.1% TX-100 in PBS) for 30 minutes at room temperature. Specimens were then incubated with anti-alpha-tubulin antibody (Sigma, 1:2000) for 1 hour at room temperature in blocking buffer. After several washing steps cells were incubated with AlexaFluor-488 goat-anti-mouse IgG (Molecular Probes, 1:3000) for 1 hour at room temperature followed by several washing steps with blocking buffer. Specimens were then mounted with ProLong Gold antifade (Molecular Probes), sealed with nail polish and examined with a Leica immunofluorescence microscope. Images were captured with a cooled CCD-camera and processed by ImageJ software.

The next test concerns A549. Nature of the test: Crystal Violet assay of BAL27862-resistant cell line versus parental line. As to conditions: 72 hours incubation, Crystal Violet. The source says:
(§1) BAL27862-resistant sublines of human non-small cell lung cancer (H460 ATCC reference HTB-177; A549 ATCC reference CCL-185), ovarian cancer (SKOV3 ATCC reference HTB-77) lines were generated by long-term selection in complete cell culture medium (RPMI-1640 containing 10% FCS; Sigma-Aldrich) by stepwise increasing concentrations of BAL27862. […] The resistant sublines were expanded at the highest tolerated BAL27862 concentration and subsequently frozen and stored in liquid nitrogen.
(§2) After medium was removed, cells were fixed and stained by adding 50 μl Crystal Violet Staining (0.2% Crystal Violet in 50% Methanol) per well. Plates were incubated for 1 hour at room temperature. Subsequently the stain was decanted and plates were washed 4 times with double-distilled water. Plates were air-dried for several hours. Stain was dissolved by adding 100 μl buffer (0.1 M Tris pH 7.5, 0.2% SDS, 20% Ethanol) per well and shaking the plates. Absorbance at 590 nm was measured using a SpectraMax M2e plate reader (Molecular Devices). Anti-proliferative IC50 values were calculated from concentration response curves using GraphPad Prism software. Resistance factors were calculated as a ratio of BAL27862 IC50 in the resistant line variant versus the IC50 in the parental line.

For the next test, the system named is H460. The description is as above. As to conditions: 72 hours incubation, Crystal Violet.
Description: as §1, §2

The subject of a further test is SKOV3 resistant 1. Described as above. As to conditions: 72 hours incubation, Crystal Violet.
Description: as §1, §2

The next test relates to SKOV3 resistant 2. The test is described as above. As to conditions: 72 hours incubation, Crystal Violet.
Description: as §1, §2

The test system of a further test is GXF251. Nature of the test: Colony outgrowth assay, patient-derived tumour xenograft cells. Details: key: S: BAL27862-sensitive tumour cells have IC70 values in the low nanomolar range; R: BAL27862-resistant tumour cells are defined by IC70 values >600 nanomolar. As to conditions: Gastric. The procedure: (§3) Single cell suspensions of patient-derived tumour xenografts (maintained in nude mice) were prepared. For colony outgrowth assays, cells were plated in soft agar in 24-well plates according to the assay introduced by Hamburger & Salmon (Primary bioassay of human tumour stem cells, Science, 1977, 197:461-463). 2.0E+04-6.0E+04 cells in 0.2 mL medium containing 0.4% agar were plated out on a bottom layer of 0.75% agar. Test compounds were applied in 0.2 mL culture medium. Every 24-well plate contained untreated controls and samples in triplicates. Cultures were incubated at 37° C. and 7.5% CO2 for 5-28 days. 24 hours prior to analysis, vital colonies were stained with a solution of metabolizable tetrazolium salt (Alley M C et al, Life Sci. 1982, 31:3071-3078) and were counted with an automatic image analysis system (Omnicon 3600, Biosys GmbH).
(§4) Relative drug effects were expressed by the ratio of the mean number of colonies in the treated wells and the control wells. IC70-values were determined by plotting compound concentrations versus relative colony counts.
A general note: In xenograft studies the graft and the host belong to different species.

Another test deals with GXF97. The description is as above. Details: key: S: BAL27862-sensitive tumour cells have IC70 values in the low nanomolar range; R: BAL27862-resistant tumour cells are defined by IC70 values >600 nanomolar. Particulars: Gastric. The procedure:
as §3, §4

Another test deals with LXFA629. Described as above. On the set-up: key: S: BAL27862-sensitive tumour cells have IC70 values in the low nanomolar range; R: BAL27862-resistant tumour cells are defined by IC70 values >600 nanomolar. Particulars: Lung. The procedure: as §3, §4
In the next test the test system is LXFL529. The description is as above. On the set-up: key: S: BAL27862-sensitive tumour cells have IC70 values in the low nanomolar range; R: BAL27862-resistant tumour cells are defined by IC70 values >600 nanomolar. Particulars: Lung. The procedure: as §3, §4
In test [1] the test system is tumour cells derived from patient-derived tumours from gastric and lung cancer. Description: Colony outgrowth assay, all tumour models. The procedure: as §3, with “GmbH). Relative drug effects were expressed by the ratio of the mean number of colonies in the treated wells and the control wells. IC70-values were determined by plotting compound concentrations versus relative colony counts.” for “GmbH).”

The next test concerns BAL27862-resistant cells. Nature of the test: Crystal Violet assay of BAL27862-resistant cell lines, all lines.
Description: as §1, §2

As to `COC(=O)Nc1nc2ccc(C(=O)c3cccs3)cc2[nH]1` [Nocodazole, nocodazole], in the test with A549 NSCLC cells, the “microtubule phenotype of mitotic or G2/M arrested cells” value is “mitotic microtubule phenotypes characteristic of these agents” and the “microtubule phenotype, agent added for the last 4 hours of 24 hours BAL27862 treatment” value (from here on “microtubule phenotype, agent added”) was “no impact on the observed microtubule phenotype”.
Consider `COc1cc2c(c(OC)c1OC)-c1ccc(OC)c(=O)cc1[C@@H](NC(C)=O)CC2` [Colchicine, colchicine], for which the “Resistance factors (ratio of IC50 BAL27862-resistant cell line variant and IC50 parental cell line)” value in the test on A549 is given as 0.9; with H460 it was 1.6; with SKOV3 resistant 1 it was 2.0; in the test on SKOV3 resistant 2, 2.8. Moreover, the “microtubule phenotype of mitotic or G2/M arrested cells” value with A549 NSCLC cells is “mitotic microtubule phenotypes characteristic of these agents”. For the same molecule, the “microtubule phenotype, agent added” value with A549 NSCLC cells was “no impact on the observed microtubule phenotype”.
With `CC(=O)O[C@H]1C(=O)[C@@]2(C)[C@H]([C@H](OC(=O)c3ccccc3)[C@]3(O)C[C@H](OC(=O)[C@H](O)[C@@H](NC(=O)c4ccccc4)c4ccccc4)C(C)=C1C3(C)C)[C@]1(OC(C)=O)CO[C@@H]1C[C@@H]2O` [Paclitaxel, paclitaxel], the “Sensitive (S)/Resistant (R), by IC70 in colony outgrowth” value with GXF251, with GXF97, with LXFA629 and in the test with LXFL529 was “R (BAL27862-resistant tumour cells are defined by IC70 values >600 nanomolar)” in each case. Besides, the “resistance or sensitivity to treatment, same ex vivo assay” value in test [1] is reported as “resistant”. The “microtubule phenotype of mitotic or G2/M arrested cells” value in the test on A549 NSCLC cells is “mitotic microtubule phenotypes characteristic of these agents”. Moreover, the “microtubule phenotype, agent added” value in the test on A549 NSCLC cells was “no impact on the observed microtubule phenotype”. Besides, the “response of BAL27862-resistant cells versus parental” value in the test on BAL27862-resistant cells is recorded as “increased sensitivity”.
On to `N#CCCNc1nonc1-c1nc2ccccc2n1CC(=O)c1ccc(N)nc1` [Compound C, 3-(4-{1-[2-(6-Amino-pyridin-3-yl)-2-oxo-ethyl]-1H-benzoimidazol-2-yl}-furazan-3-ylamino)-propionitrile], for which the “microtubule phenotype of mitotic or G2/M arrested cells” value with A549 NSCLC cells is “highly reproducible and distinct microtubule phenotype”.
Same read-out and setting: the entry for `Nc1ccc(C(=O)Cn2c(-c3nonc3N)nc3ccccc32)cc1` [Compound B, 2-[2-(4-Amino-furazan-3-yl)-benzoimidazol-1-yl]-1-(4-amino-phenyl)-ethanone] is “highly reproducible and distinct microtubule phenotype”.
On to `CC[C@]1(O)C[C@@H]2CN(CCc3c([nH]c4ccccc34)[C@@](C(=O)OC)(c3cc4c(cc3OC)N(C)[C@H]3[C@@](O)(C(=O)OC)[C@H](OC(C)=O)[C@]5(CC)C=CCN6CC[C@]43[C@@H]65)C2)C1` [Vinblastine, vinblastine], for which the “Sensitive (S)/Resistant (R), by IC70 in colony outgrowth” value with GXF251, in the test on GXF97, in the test with LXFA629 and with LXFL529 was “S” each time. In addition, the “resistance or sensitivity to treatment, same ex vivo assay” value in test [1] is recorded as “sensitive”. The “microtubule phenotype of mitotic or G2/M arrested cells” value in the test on A549 NSCLC cells is recorded as “mitotic microtubule phenotypes characteristic of these agents”. Also, the “microtubule phenotype, agent added” value in the test on A549 NSCLC cells is “no impact on the observed microtubule phenotype”.
